Measured values: article PMC7343746, “(2S, 4R)-4-[^18F]Fluoroglutamine for In vivo PET Imaging of Glioma Xenografts in Mice: an Evaluation of Multiple Pharmacokinetic Models” (Molecular Imaging and Biology, 2020)
Several values for one entry are separate records, joined by “and”; a condition that tells them apart may be missing. Identical values can stand only once.

Assays:
[1] = In vivo stability analysis, plasma precipitation assay; parameters: species or system C57BL/6J and Foxn1^nu/nu mice; conditions: after 60 min
Description: Tracer in vivo stability studies were performed with 12 mice consisting of two groups; 6 1-year-old male C57BL/6J and 6 3-month-old female Foxn1^nu/nu mice.
Twelve non-tumor-bearing control mice (6 C57BL/6J and 6 Foxn1^nu/nu) were injected with 9–14 MBq of tracer before a 200-μL blood sample was drawn into a heparinized vial and kept on ice. After 15 min, a second sample was collected during animal sacrifice. Whole blood was weighed and measured for radioactivity before being centrifuged at 730×g and 5 °C for 5 min, separated into plasma and blood cell fractions, and then separately weighed and measured. The values were used along with age, gender, and animal model-specific hematocrit values (reported by suppliers) to calculate the plasma radioactivity fraction of the whole-blood radioactivity (Eq. 1):1 Plasma Activity Fraction=Cp/CRBC+Cp=ρpCpHCT/ρbCb−ρpCp1−HCT+ρpCpHCT where C = radioactivity concentration, ρ = density, and HCT = hematocrit. […]
Aliquots of plasma were precipitated with 2.5 × (volume) methanol, vortexed, and centrifuged at 11,000×g for 5 min. The pellet and supernatant fractions were separated and measured for radioactivity to give the radioactivity fraction of the plasma that was trapped or bound to proteins (Eq. 2):2 Unbound plasma fraction=Csup/Cpel+Csup where C = radioactivity of subscripts which denote the following: sup = supernatant and pel = pellet. […]

[2] = tested on: rat BT4C glioma cells; assay: Yokoi plot, subcutaneous model; assay type: in vivo, Foxn1^nu/nu mouse; conditions: for Yokoi K1 (AB) plasma to tissue transport rate / Yokoi K1/k2 (AB) binding potential / Yokoi k2 (AB) tissue to plasma transport rate: AB input; for Yokoi K1 (PC) plasma to tissue transport rate / Yokoi K1/k2 (PC) binding potential / Yokoi k2 (PC) tissue to plasma transport rate: PC input
Description: Image analysis was performed using CARIMAS software published and freely distributed by the Turku PET Center (http://turkupetcentre.fi/carimas/). CT scans were used as rough anatomical reference while tumor regions of interest (ROI) were hand-drawn based upon observed spikes of radioactivity in the PET images at locations correlating with recorded tumor grafts. Control muscle ROIs were drawn on the side opposite to the tumor in the leg flank muscle (based on CT) while the blood ROI was drawn based upon heart anatomical location and observed PET image radioactivity spike during the initial 20 s of imaging in the left ventricle. Standardized uptake values (SUV) were calculated with respect to ROI volume, mean and max tumor radioactivity, total injected radioactivity dose (corrected for tail, cannula, and syringe residual radioactivity), and animal weight, and were additionally presented as tumor-to-background ratio (TBR, tumor-to-healthy brain region for intracranial gliomas and tumor-to-muscle for subcutaneous gliomas) as defined by recent glioma research literature standards. Mean and maximum TBR values were reported as ROI radioactivity per volume divided by mean background radioactivity per volume. The blood radioactivity SUV and gender-specific metabolite-corrected blood radioactivity SUV were then applied to multiple pharmacokinetic models to characterize the flux of the tracer (further described in the “Modeling” section).
Using the heart’s left ventricle ROI from the PET data as an uncorrected radioactivity level input and the bioavailable parent-tracer fraction (results: Eqs. 3 and 4 applied to the uncorrected input) as the corrected input, multiple models were investigated to characterize the tissue uptake dynamics. Two-compartment modeling and Logan, Patlak, and Yokoi plots were used to separately model the pharmacokinetics for the gliomas (both subcutaneous and orthotopic loci) and their respective control tissues (healthy muscle and healthy brain, respectively). Where indicated, means plus/minus standard deviations are reported. Difference in parameters for uncorrected versus correct and target tissue versus their respective control regions were tested with students’ paired t tests with P values lower than 0.05 being considered significant.

[3] = tested on: patient-derived BT3 glioma cells; assay: In vivo PET imaging of orthotopic glioma xenografts; parameters: species or system BALB/cOlaHsd-Foxn1^nu mouse; conditions: for PET TBRmean: orthotopic glioma
Excerpt: The intracranial glioma model was made by injecting female BALB/cOlaHsd-Foxn1^nu (athymic nude, Institute of Animal Genetics, Edinburgh, UK) mice with patient-derived BT3 glioma cells labeled with luciferase into the frontal right hemisphere of the brain at 9 weeks old. Tumors were monitored for growth via in vivo bioluminescence detection and subjects PET imaged after 12 days.
One to two mice were imaged at a time while under 2 % isoflurane anesthesia with an Inveon multimodality small animal PET/CT scanner (Siemens Medical Solutions, Munich, Germany) commencing with an attenuation CT scan to correct the PET scan data. Ten to twelve megabequerels of the tracer was injected into the tail vein, and the subject(s) were imaged over a 60-min period in list mode dividing framing into 6 × 10 s, 4 × 60 s, 5 × 300 s, 3 × 600 s. Obtained sinograms were reconstructed using the ordered-subset expectation maximization 2-dimensional algorithm to obtain the final PET images and back-corrected for radionuclide decay.
Image analysis was performed using CARIMAS software published and freely distributed by the Turku PET Center (http://turkupetcentre.fi/carimas/). CT scans were used as rough anatomical reference while tumor regions of interest (ROI) were hand-drawn based upon observed spikes of radioactivity in the PET images at locations correlating with recorded tumor grafts. Control muscle ROIs were drawn on the side opposite to the tumor in the leg flank muscle (based on CT) while the blood ROI was drawn based upon heart anatomical location and observed PET image radioactivity spike during the initial 20 s of imaging in the left ventricle. […] Mean and maximum TBR values were reported as ROI radioactivity per volume divided by mean background radioactivity per volume. The blood radioactivity SUV and gender-specific metabolite-corrected blood radioactivity SUV were then applied to multiple pharmacokinetic models to characterize the flux of the tracer (further described in the “Modeling” section).

[4] = Bone (femoral condyle) average (n = 6)

## NC(=O)[C@H]([18F])C[C@H](N)C(=O)O [[^18F]FGln, (2S, 4R)-4-[^18F]fluoroglutamine]
[1]
  Plasma radioactivity bound to or incorporated into proteins: roughly 25%
[2]; [4]
  Yokoi K1 (AB) plasma to tissue transport rate: 0.075 ± 0.013 mL min-1 mL-1
  Yokoi K1/k2 (AB) binding potential: 5.48 ± 2.21 mL mL-1
  Yokoi k2 (AB) tissue to plasma transport rate: 0.017 ± 0.012 min⁻¹
  Yokoi K1 (PC) plasma to tissue transport rate: 0.086 ± 0.015 mL min-1 mL-1
  Yokoi K1/k2 (PC) binding potential: 37.68 ± 39.62 mL mL-1
  Yokoi k2 (PC) tissue to plasma transport rate: 0.005 ± 0.006 min⁻¹
[2]; Flank muscle average (n = 6)
  Yokoi K1 (AB) plasma to tissue transport rate: 0.057 ± 0.023 mL min-1 mL-1
  Yokoi K1/k2 (AB) binding potential: 0.76 ± 0.13 mL mL-1
  Yokoi k2 (AB) tissue to plasma transport rate: 0.074 ± 0.028 min⁻¹
  Yokoi K1 (PC) plasma to tissue transport rate: 0.054 ± 0.017 mL min-1 mL-1
  Yokoi K1/k2 (PC) binding potential: 1.37 ± 0.23 mL mL-1
  Yokoi k2 (PC) tissue to plasma transport rate: 0.039 ± 0.013 min⁻¹
[2]; Flank tumor average (n = 6)
  Yokoi K1 (AB) plasma to tissue transport rate: 0.121 ± 0.039 mL min-1 mL-1
  Yokoi K1/k2 (AB) binding potential: 1.13 ± 0.09 mL mL-1
  Yokoi k2 (AB) tissue to plasma transport rate: 0.106 ± 0.029 min⁻¹
  Yokoi K1 (PC) plasma to tissue transport rate: 0.105 ± 0.027 mL min-1 mL-1
  Yokoi K1/k2 (PC) binding potential: 1.95 ± 0.15 mL mL-1
  Yokoi k2 (PC) tissue to plasma transport rate: 0.054 ± 0.011 min⁻¹
[2]; Neck tumor average (n = 6)
  Yokoi K1 (AB) plasma to tissue transport rate: 0.179 ± 0.076 mL min-1 mL-1
  Yokoi K1/k2 (AB) binding potential: 1.21 ± 0.08 mL mL-1
  Yokoi k2 (AB) tissue to plasma transport rate: 0.146 ± 0.056 min⁻¹
  Yokoi K1 (PC) plasma to tissue transport rate: 0.135 ± 0.039 mL min-1 mL-1
  Yokoi K1/k2 (PC) binding potential: 2.08 ± 0.13 mL mL-1
  Yokoi k2 (PC) tissue to plasma transport rate: 0.065 ± 0.016 min⁻¹
[3]; Subject A
  PET TBRmean: 4.8
[3]; Subject B
  PET TBRmean: 3.6
[3]; orthotopic human glioma xenografts
  PET image tumor-to-healthy brain region ratio: 3.6 and 4.8
